Data taken from patent US9493396B2, “Substituted naphthalene compounds as calcium sensing receptor modulators” (LUPIN ATLANTIS HOLDINGS SA, priority 2013, dated 2016).
Counter-ions that a name gives are not always drawn.

These molecules were tested against T1, Calcium sensing receptor (hCaSR) (Homo sapiens, UniProt P41180) (assay: In-vitro assay of calcimimetics through modulation of calcium sensing receptor (intracellular calcium increase, FLIPR)). Conditions: stably transfected HEK293 cells expressing hCaSR; Fluo4NW dye; 0.3 mM CaCl2; 8-point assay; read-out: EC50 in range.
T1 construct: expressed in transfected cells; host or cells: HEK293 (stably transfected)
T1 sequence (P41180 20-1078): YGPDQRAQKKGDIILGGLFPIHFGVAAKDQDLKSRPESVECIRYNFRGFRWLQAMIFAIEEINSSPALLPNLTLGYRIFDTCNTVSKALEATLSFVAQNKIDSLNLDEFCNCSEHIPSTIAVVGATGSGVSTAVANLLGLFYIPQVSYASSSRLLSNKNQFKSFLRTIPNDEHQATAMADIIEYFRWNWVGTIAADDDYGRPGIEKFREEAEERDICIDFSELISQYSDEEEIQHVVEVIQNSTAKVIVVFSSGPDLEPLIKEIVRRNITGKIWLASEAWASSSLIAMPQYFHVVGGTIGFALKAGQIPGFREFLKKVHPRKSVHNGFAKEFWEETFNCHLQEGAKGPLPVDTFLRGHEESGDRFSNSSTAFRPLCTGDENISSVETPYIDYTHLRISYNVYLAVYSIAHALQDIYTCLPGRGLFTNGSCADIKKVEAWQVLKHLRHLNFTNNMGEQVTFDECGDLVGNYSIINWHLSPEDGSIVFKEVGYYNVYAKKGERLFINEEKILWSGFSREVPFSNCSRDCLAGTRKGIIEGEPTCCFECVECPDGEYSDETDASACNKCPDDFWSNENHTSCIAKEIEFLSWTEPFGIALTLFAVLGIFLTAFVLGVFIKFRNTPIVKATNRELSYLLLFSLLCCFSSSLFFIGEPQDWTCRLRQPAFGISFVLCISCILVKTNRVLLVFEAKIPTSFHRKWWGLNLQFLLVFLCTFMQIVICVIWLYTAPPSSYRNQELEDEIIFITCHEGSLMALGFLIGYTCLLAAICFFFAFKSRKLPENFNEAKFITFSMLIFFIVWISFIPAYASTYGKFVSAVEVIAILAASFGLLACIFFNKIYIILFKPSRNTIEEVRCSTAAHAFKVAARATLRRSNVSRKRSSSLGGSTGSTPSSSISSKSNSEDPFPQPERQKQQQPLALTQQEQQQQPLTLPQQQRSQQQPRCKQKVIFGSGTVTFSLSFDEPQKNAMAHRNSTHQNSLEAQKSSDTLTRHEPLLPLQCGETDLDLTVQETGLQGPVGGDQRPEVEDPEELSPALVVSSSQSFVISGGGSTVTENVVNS
Assay type: cell-based
Description: In-Vitro Assay Method of Calcimimetics Through Modulation of Calcium Sensing Receptor (CaSR): The ability of the compounds to modulate Calcium sensing receptor is determined by measuring an increase in intracellular calcium [Ca^2+]i. Stably transfected HEK293 cells expressing hCaSR_pTriEx-3 hygro vector are developed. Cells are grown overnight on a 96-well plate to 80% confluency in Ham's F12 containing 20% FBS at 37° C., 5% CO2. Subsequently, cells are washed extensively with 20 mM HEPES buffer containing 126 mM […], 1 mM MgCl2 and 4 mM KCl to remove serum components that might interfere with the assay. Cells are loaded with calcium sensing Fluo4NW dye in HEPES base buffer containing 0.1% BSA and 1 mg/ml glucose for 30 minutes to measure changes in intracellular calcium. The activities of the compounds are measured in FLIPR using 0.3 mM CaCl2 in 20 mM HEPES base buffer. The effectiveness of the compound to modulate receptor activity is determined by calculating the EC50 responses for that compound in an 8-point assay and plotted using GraphPad Prism 5.

| SMILES | EC50 [nM] |
| --- | --- |
| CC(N[C@H](C)c1cccc(Cl)c1)c1cc(-c2ccc(OC(F)(F)F)cc2)c2ccccc2c1 (stereo partly drawn) [Example 20, (1R)-1-(3-Chlorophenyl)-N-(1-(4-(4-(trifluoromethoxy)phenyl)naphthalen-2-yl)ethyl)ethanamine hydrochloride] | < 20 |
| COc1cccc([C@@H](C)NC(C)c2cc(-c3ccc(OC(F)F)cc3)c3ccccc3c2)c1 (stereo partly drawn) [Example 21, 1-(4-(4-(Difluoromethoxy)phenyl)naphthalen-2-yl)-N-((R)-1-(3-methoxyphenyl)ethyl)ethanamine hydrochloride] | < 20 |
| CC(N[C@H](C)c1cccc(Cl)c1)c1cc(-c2ccc(OC(F)F)cc2)c2ccccc2c1 (stereo partly drawn) [Example 22, (1R)-1-(3-Chlorophenyl)-N-1-(4-(4-(difluoromethoxy)phenyl)naphthalen-2-yl)ethyl)ethanamine hydrochloride] | < 20 |
| COC(=O)c1cc(-c2cc(CN[C@H](C)c3cccc(OC)c3)cc3ccccc23)ccc1F [Example 45, (R)-methyl 2-fluoro-5-(3-(((1-(3-methoxyphenyl)ethyl)amino)methyl)naphthalen-1-yl)benzoate hydrochloride] | < 20 |
| Cc1ccc(-c2cc(CN[C@H](C)c3cccc4ccccc34)cc3ccccc23)cc1C(=O)O [Example 89, (R)-2-Methyl-5-(3-(((1-(naphthalen-1-yl)ethyl)amino)methyl)naphthalen-1-yl) benzoic acid] | 20 to 50 |
| COc1cccc([C@@H](C)NCc2cc(-c3ccc(C)c(C(=O)O)c3)c3ccccc3c2)c1 [Example 90, (R)-5-(3-(((1-(3-Methoxyphenyl)ethyl)amino)methyl)naphthalen-1-yl)-2-methylbenzoic acid hydrochloride] | < 20 |
| CCOc1cccc([C@@H](C)NCc2cc(-c3ccc(C)c(C(=O)O)c3)c3ccccc3c2)c1 [Example 91, hydrochloride] | < 20 |
| CCCOc1cccc([C@@H](C)NCc2cc(-c3ccc(C)c(C(=O)O)c3)c3ccccc3c2)c1 [Example 92, (R)-2-Methyl-5-(3-(((1-(3-propoxyphenyl)ethyl)amino)methyl)naphthalen-1-yl)benzoic acid hydrochloride] | 50 to 400 |
| COc1cc([C@@H](C)NCc2cc(-c3ccc(C)c(C(=O)O)c3)c3ccccc3c2)ccc1F [Example 93, (R)-5-(3-(((1-(4-Fluoro-3-methoxyphenyl)ethyl)amino)methyl)naphthalen-1-yl)-2-methylbenzoic acid hydrochloride] | 50 to 400 |
| Cc1ccc(-c2cc(CN[C@H](C)c3cccc(Cl)c3)cc3ccccc23)cc1C(=O)O [Example 94, (R)-5-(3-(((1-(3-Chlorophenyl)ethyl)amino)methyl)naphthalen-1-yl)-2-methylbenzoic acid hydrochloride] | 50 to 400 |
| Cc1ccc(-c2cc(CN[C@H](C)c3cccc(OCC(F)F)c3)cc3ccccc23)cc1C(=O)O [Example 95, (R)-5-(3-(((1-(3-(2,2-Difluoroethoxy)phenyl)ethyl)amino)methyl)naphthalen-1-yl)-2-methylbenzoic acid hydrochloride] | 50 to 400 |
| COc1cc([C@@H](C)NCc2cc(-c3ccc(F)c(C(=O)O)c3)c3ccccc3c2)ccc1F [Example 96, (R)-2-Fluoro-5-(3-(((1-(4-fluoro-3-methoxyphenyl)ethyl)amino)methyl)naphthalen-1-yl)benzoic acid hydrochloride] | 50 to 400 |
| COc1cccc([C@@H](C)NCc2cc(-c3ccc(F)c(C(=O)O)c3)c3ccccc3c2)c1 [Example 97, (R)-2-Fluoro-5-(3-(((1-(3-methoxyphenyl)ethyl)amino)methyl)naphthalen-1-yl)benzoic acid hydrochloride] | < 20 |
| CCOc1cccc([C@@H](C)NCc2cc(-c3ccc(F)c(C(=O)O)c3)c3ccccc3c2)c1 [Example 98, hydrochloride] | < 20 |
| COc1cccc([C@@H](C)NCc2cc(-c3ccc(Cl)c(C(=O)O)c3)c3ccccc3c2)c1 [Example 99, (R)-2-Chloro-5-(3-(((1-(3-methoxyphenyl)ethyl)amino)methyl)naphthalen-1-yl)benzoic acid hydrochloride] | 20 to 50 |
| CCOc1cccc([C@@H](C)NCc2cc(-c3ccc(Cl)c(C(=O)O)c3)c3ccccc3c2)c1 [Example 100, (R)-2-Chloro-5-(3-(((1-(3-ethoxyphenyl)ethyl)amino)methyl)naphthalen-1-yl)benzoic acid hydrochloride] | 20 to 50 |
| COc1cccc([C@@H](C)NCc2cc(-c3cccc(C(=O)O)c3C)c3ccccc3c2)c1 [Example 101, (R)-3-(3-(((1-(3-Methoxyphenyl)ethyl)amino)methyl)naphthalen-1-yl)-2-methylbenzoic acid hydrochloride] | 50 to 400 |
| COc1cccc([C@@H](C)NCc2cc(-c3cccc(C(=O)O)c3F)c3ccccc3c2)c1 [Example 103, (R)-2-Fluoro-3-(3-(((1-(3-methoxyphenyl)ethyl)amino)methyl)naphthalen-1-yl)benzoic acid hydrochloride] | 20 to 50 |
| COc1cccc([C@@H](C)NCc2cc(-c3ccc(OC)c(C(=O)O)c3)c3ccccc3c2)c1 [Example 104, (R)-2-Methoxy-5-(3-(((1-(3-methoxyphenyl)ethyl)amino)methyl)naphthalen-1-yl)benzoic acid hydrochloride] | 50 to 400 |
| COc1cccc([C@@H](C)NCc2cc(-c3ccc(C(C)C)c(C(=O)O)c3)c3ccccc3c2)c1 [Example 105, (R)-2-Isopropyl-5-(3-(((1-(3-methoxyphenyl)ethyl)amino)methyl)naphthalen-1-yl)benzoic acid hydrochloride] | 50 to 400 |
| C[C@@H](NCc1cc(-c2ccc(C(=O)O)cc2)c2ccccc2c1)c1cccc2ccccc12 [Example 106, (R)-4-(3-(((1-(Naphthalen-1-yl)ethyl)amino)methyl)naphthalen-1-yl)benzoic acid hydrochloride] | 50 to 400 |
| COc1cc([C@@H](C)NCc2cc(-c3ccc(C(=O)O)cc3)c3ccccc3c2)ccc1F [Example 107, (R)-4-(3-(((1-(4-Fluoro-3-methoxyphenyl)ethyl)amino)methyl)naphthalen-1-yl)benzoic acid hydrochloride] | 20 to 50 |
| COc1cccc([C@@H](C)NCc2cc(-c3cccc(C(=O)O)c3)c3ccccc3c2)c1 [Example 108, (R)-3-(3-(((1-(3-Methoxyphenyl)ethyl)amino)methyl)naphthalen-1-yl)benzoic acid hydrochloride] | < 20 |
| COc1cccc([C@@H](C)NCc2cc(-c3ccc(C)c(C(=O)O)c3C)c3ccccc3c2)c1 [Example 109, (R)-3-(3-(((1-(3-Methoxyphenyl)ethyl)amino)methyl)naphthalen-1-yl)-2,6-dimethylbenzoic acid hydrochloride] | 50 to 400 |
| COc1cccc([C@@H](C)NCc2cc(-c3ccc(F)c(CCC(=O)O)c3)c3ccccc3c2)c1 [Example 110, hydrochloride] | < 20 |
| COc1cccc([C@@H](C)NCc2cc(-c3ccc(C(C)(C)C(=O)O)cc3)c3ccccc3c2)c1 [Example 111, (R)-2-(4-(3-(((1-(3-Methoxyphenyl)ethyl)amino)methyl)naphthalen-1-yl)phenyl)-2-methylpropanoic acid hydrochloride] | 50 to 400 |
| COc1cccc([C@@H](C)NCc2cc(-c3cccc(C(C)(C)C(=O)O)c3)c3ccccc3c2)c1 [Example 112, (R)-2-(3-(3-(((1-(3-Methoxyphenyl)ethyl)amino)methyl)naphthalen-1-yl)phenyl)-2-methylpropanoic acid hydrochloride] | 50 to 400 |
| COCCOc1cccc([C@@H](C)NCc2cc(-c3ccc(F)c(C(=O)O)c3)c3ccccc3c2)c1 [Example 113, (R)-2-Fluoro-5-(3-(((1-(3-(2-methoxyethoxy)phenyl)ethyl)amino)methyl)naphthalen-1-yl) benzoic acid hydrochloride] | 50 to 400 |
